Read-outs that look alike come from different tables or passages of the source. Marks after values point to notes of the source that are not given here.
Assays:
[1] = tested on: mouse pulmonary thromboembolism model; test: In vivo antithrombotic activity: acute pulmonary thromboembolism model induced by collagen-epinephrine mixture; details: mice; for % Protection / Paralyzed or Died Animals/Total: oral single dose 100 µmol/10 g body weight; for % Protection: [1 − (paralyzed + death animals)/total animals] × 100; for Paralyzed or Died Animals/Total: collagen (11 mg/kg) plus epinephrine (0.7 mg/kg) i.v. after 60 min, evaluated 15 min after stimulus; for deaths per group: ten per group, oral 100 µmol/10 g, 15 min after thrombogenic stimulus
Protocol: The antithrombotic effects of all compounds (3a,b, 4a,b, 8a,b, 9a,b, 13a,b and 14a,b) were evaluated in vivo using a mouse pulmonary thromboembolism model [18, 19].
In vivo pulmonary thromboembolism was induced in mice according to previously described procedures [18, 19]. Ten Swiss male mice (25−30 g) were used in each test group and the control group. Compounds (3a,b, 4a,b, 8a,b, 9a,b, 13a,b and 14a,b) and acetylsalicylic acid were given orally (100 µmol/10 g, 0.1 mL/10 g) using a 2% carboxymethylcellulose suspension as the vehicle. After 60 min, an intravenous injection of the thrombogenic stimulus containing a mixture of collagen (11 mg/kg) plus epinephrine (0.7 mg/kg) was administered through the tail vein. The dose of the pro-thrombotic mixture was previously characterized using a dose/response curve able to reliably reproduce 80%–90% mortality rate or animal paralysis [15]. The loss of the righting reflex was considered an indication of animal’s paralysis in the control group. The rates of animal survival and paralysis were evaluated 15 min after the administration of the thrombogenic stimulus. After this time, the animals were euthanized using carbon dioxide. […] The protection against acute pulmonary thromboembolism (percentage) was calculated as follows: [1 − (paralyzed + death animals)/total animals] × 100. The chi-square test was used to examine the difference between the control and treated groups.

[2] = tested on: micronucleated reticulocytes (MNRET) of mice; test: In vivo genotoxicity: micronucleus test in peripheral blood reticulocytes
Protocol: The genotoxicity induced by 14a was evaluated using the micronucleus test.
Compound 14a (250 mg/kg) and negative control (1% carboxymethylcellulose (CMC) suspension and 0.2% tween; 0.3 mL) were administered to the animals orally. The positive control group received cyclophosphamide (50 mg/kg; i.p.). Groups of 10 Swiss mice of both sexes (25−30 g) were used in each test and control group. After 30 h, the animals were anesthetized using a mixture of ketamine/xylazine (100/10 mg/kg; i.p.), and […] of blood were collected from the tail vein and added to laminas pre-stained with acridine orange. The animals were euthanized via deepening of anesthesia. One thousand reticulocytes per animal were counted, and the frequency of micronucleated cells was registered. […] When p < 0.05, the average values for the treatments were compared using the Tukey method, calculating the minimum significant difference at α = 0.05.

rat platelet-rich plasma = test: In vitro antiplatelet activity: platelet aggregation in rat platelet-rich plasma (turbidimetric method of Born and Cross); assay type: cell-based; details: compounds and ASA at 150 μM, rat PRP, n = 3; for inhibition at 150 µM: Platelet
Protocol: In vitro antiplatelet activity was evaluated using rat platelet-rich plasma in the presence of ADP (10 μM), arachidonic acid (100 μM) and collagen (5 μg/mL) [15, 16].
Five rats (Wistar; 200–250 g) were previously anesthetized by inhalation of isoflurane using a vaporizing system. Animal breathing was monitored during all procedures. Blood was withdrawn from each rat’s aorta artery and mixed with 3.8% trisodium citrate (9:1 v/v). The animals were then euthanized by deepening of anesthesia. Platelet-rich plasma (PRP) was prepared by centrifugation at 375× g for 10 min at room temperature. The platelet-poor plasma (PPP) was prepared by centrifugation of the pellet at 1800× g for 10 min at room temperature. Platelet aggregation was monitored by the turbidimetric method of Born and Cross [16] using a Chrono-Log aggregometer. PRP (300 μL) was incubated at 37 °C for 1 min with continuous stirring at 900 rpm. ADP (10 μM), type I collagen (5 μg/mL; molecular weight of 115–130 kDa) and arachidonic acid (100 μM) were used to induce platelet aggregation. […] Acetylsalicylic acid (AAS, 150 μM) was used as positive control. The results were expressed as an inhibition percentage. The statistical analysis was performed using ANOVA followed by Tukey’ s test.

[3] = aggregation induced by arachidonic acid 100 μM
[4] = aggregation induced by collagen 5 μg/mL
[5] = aggregation induced by ADP 10 μM
[6] = aggregation induced by ADP 10 μM, read-out: Platelet Inhibition (%) ADP (10 μM)
[7] = aggregation induced by arachidonic acid 100 μM, read-out: Platelet Inhibition (%) Arachidonic Acid (100 μM)
[8] = aggregation induced by collagen 5 μg/mL, read-out: Platelet Inhibition (%) Collagen (5 μg/mL)

| Compound | % Protection [1] | Paralyzed or Died Animals/Total [1] | micronucleated reticulocytes (MNRET), frequency in 1000 cells ([2]; mouse, in vivo, po, 250 mg/kg) | Platelet Inhibition (%) Arachidonic Acid (100 μM) (rat platelet-rich plasma; [3]) | Platelet Inhibition (%) Collagen (5 μg/mL) (rat platelet-rich plasma; [4]) | Platelet Inhibition (%) ADP (10 μM) (rat platelet-rich plasma; [5]) | deaths per group [1] | inhibition at 150 µM (rat platelet-rich plasma; [6]) | inhibition at 150 µM (rat platelet-rich plasma; [7]) | inhibition at 150 µM (rat platelet-rich plasma; [8]) | micronucleated reticulocytes (MNRET), frequency in 1000 cells ([2]; mice, positive control 50 mg/kg i.p., blood collected after 30 h, mean ± SD) |
| --- | --- | --- | --- | --- | --- | --- | --- | --- | --- | --- | --- |
| CC(=O)Oc1ccccc1C(=O)Oc1cccc(C(=O)N/N=C/c2ccc3c(c2)no[n+]3[O-])c1 [Compound 14a, (E)-5-((2-(3-((2-Acetoxybenzoyl)oxy)benzoyl)hydrazono)methyl)benzo[c][1,2,5]oxadiazole 1-oxide] | 80 *^,† % | 2/10 | < 4 | 76.9 ± 3.1 % | 85.3 ± 3.7 % |  |  |  |  |  |  |
| 5-((2-(3-Hydroxybenzoyl)hydrazono)methyl)benzo[c][1,2,5]oxadiazole 1-oxide [Compound 13a] | 70 *^,† % | 3/10 |  | 52.3 ± 3.8 % | 45.1 ± 3.8 % | 47.1 ± 2.5 % |  |  |  |  |  |
| O=C(NN=Cc1c(-c2ccccc2)no[n+]1[O-])c1ccc(O)cc1 [Compound 8b, 3-((2-(4-Hydroxybenzoyl)hydrazono)methyl)-4-phenyl-1,2,5-oxadiazole 2-oxide] | 40 * % | 6/10 |  |  |  |  | two | 9.2 ± 2.8% | 31.6 ± 3.9% | 8.8 ± 3.6% |  |
| (E)-3-((2-(4-((2-Acetoxybenzoyl)oxy)benzoyl)hydrazono)methyl)-4-methyl-1,2,5-oxadiazole 2-oxide [Compound 4b] | 50 *^,† % | 5/10 |  | 87.5 ± 2.6 % | 34.5 ± 3.5 % |  |  |  |  |  |  |
| 3-((2-(4-Hydroxybenzoyl)hydrazono)methyl)-4-methyl-1,2,5-oxadiazole 2-oxide [Compound 3b] | 30 * % | 7/10 |  | 47.8 ± 3.7 % | 10.5 ± 3.3 % | 16.8 ± 2.9 % | two |  |  |  |  |
| O=C(NN=Cc1c(-c2ccccc2)no[n+]1[O-])c1cccc(O)c1 [Compound 8a, 3-((2-(3-Hydroxybenzoyl)hydrazono)methyl)-4-phenyl-1,2,5-oxadiazole 2-oxide] | 40 * % | 6/10 |  |  |  |  | two | 12.4 ± 3.7% | 55.1 ± 4.3% | 21.8 ± 5.1% |  |
| CC(=O)Oc1ccccc1C(=O)Oc1cccc(C(=O)N/N=C/c2c(-c3ccccc3)no[n+]2[O-])c1 [Compound 9a, (E)-3-((2-(3-((2-Acetoxybenzoyl)oxy)benzoyl)hydrazono)methyl)-4-phenyl-1,2,5-oxadiazole 2-oxide] | 30 * % | 7/10 |  |  |  |  | two | 53.4 ± 2.1% | 73.4 ± 3.3% | 43.5 ± 4.7% |  |
| (E)-3-((2-(3-((2-Acetoxybenzoyl)oxy)benzoyl)hydrazono)methyl)-4-methyl-1,2,5-oxadiazole 2-oxide [Compound 4a] | 40 * % | 6/10 |  | 70.1 ± 2.9 % | 37.8 ± 4.1 % | 65.6 ± 2.4 % | two |  |  |  |  |
| O=C(NN=Cc1ccc2c(c1)no[n+]2[O-])c1ccc(O)cc1 [Compound 13b, 5-((2-(4-Hydroxybenzoyl)hydrazono)methyl)benzo[c][1,2,5]oxadiazole 1-oxide] | 70 *^,† % | 3/10 |  | 57.8 ± 4.9 % | 43.0 ± 3.1 % | 44.2 ± 5.1 % |  |  |  |  |  |
| 3-((2-(3-Hydroxybenzoyl)hydrazono)methyl)-4-methyl-1,2,5-oxadiazole 2-oxide [Compound 3a] | 40 * % | 6/10 |  | 52.6 ± 4.1 % | 17.5 ± 2.7 % | 10.1 ± 3.3 % | two |  |  |  |  |
| CC(=O)Oc1ccccc1C(=O)O [ASA, acetylsalicylic acid, reference compound] | 30 * % | 7/10 |  | 72.2 ± 3.7 % |  | did not inhibit | two | 0% |  | 77.1 ± 3.7% |  |
| O=P1(N(CCCl)CCCl)NCCCO1 (stereo not drawn) [Cyclophosphamide, reference compound] |  |  |  |  |  |  |  |  |  |  | 41 ± 5 |
| CC(=O)Oc1ccccc1C(=O)Oc1ccc(C(=O)N/N=C/c2ccc3c(c2)no[n+]3[O-])cc1 [Compound 14b, (E)-5-((2-(4-((2-Acetoxybenzoyl)oxy)benzoyl)hydrazono)methyl)benzo[c][1,2,5]oxadiazole 1-oxide] | 70 *^,† % | 3/10 |  | 79.1 ± 1.9 % | 79.8 ± 3.4 % |  |  |  |  |  |  |
| CC(=O)Oc1ccccc1C(=O)Oc1ccc(C(=O)N/N=C/c2c(-c3ccccc3)no[n+]2[O-])cc1 [Compound 9b, (E)-3-((2-(4-((2-Acetoxybenzoyl)oxy)benzoyl)hydrazono)methyl)-4-phenyl-1,2,5-oxadiazole 2-oxide] | 50 *^,† % | 5/10 |  |  |  |  |  | 68.8 ± 1.3% | 82.7 ± 2.1% | 47.2 ± 2.9% |  |

From article PMC6332090, “Synthesis and Preliminary Evaluation of N-Oxide Derivatives for the Prevention of Atherothrombotic Events” (Molecules, 2015)
